Experimental data reported in patent US20080220416A1, “Compositions for Inhibiting Cell Growth and Inducing Apoptosis in Cancer Cells and Methods of Use Thereof” (THE BOARD OF TRUSTEES OF THE UNIVERSITY OF ILLINOI, priority 2004, published 2008).
Square brackets hold non-standard residues; d marks the D form. Peptide text beside a SMILES is read from it. * marks the point of attachment. Nle = CCCC[C@H](N)C(=O)O; Cbz = O=C(OCc1ccccc1)*

Columns and labels:
[1] = tested on: CaSki human cervical cancer cells; assay: Cell growth inhibition assay in CaSki cervical cancer cells (crystal violet); format: cell-based
Protocol: The cell growth inhibition assay was performed in a 96-well plate format. Inhibition was assessed by monitoring the protein content in each well using the crystal violet staining method as described by Skehan et al., 1990, J Natl Cancer Inst 82:1107-1112 and Prochaska et al., 1988, Anal Biochem 169:328-336. Briefly, cells were plated at a density of 2×10^4 cells/ml in 200 μl of DMEM supplemented with 10% FBS. The cells were transfected with siRNAs ([…] siRNA oligos/well) using Oligofectamine Transfection Reagents (InVitrogen) according to manufacturer's instructions. Twenty-four hours post-transfection, the media was decanted, 190 μl of fresh media was added to each well, and 10 μl of cisplatin (4 mM) dissolved in 10% DMSO was added to the wells as a series 2-fold dilutions (final concentration of cisplatin in the wells ranged from 0.5-200 μM). The cells were incubated with cisplatin for 48 hrs, the media was decanted, and the cells were submerged with 200 μl of 0.2% crystal violet in 2% ethanol for 10 min. The plates were rinsed for 2 min with tap water. The bound dye was solublized by incubation at 37° C. for 1 h with 200 μl of 0.5% sodium dedecyl sulfate in 50% ethanol. The plates were then scanned with an ELISA reader at 562 nm. The percentage cell growth inhibition mediated by cisplatin was calculated as: % inhibition=[1-(OD of cisplatin-treated cells/OD DMSO-treated control cells)]×100/100.
CaSki human cervical cancer cells treated for 48 hrs with z-Leu-Leu-Nle-CHO alone were tested for cell growth inhibition. The cell growth inhibition assay was performed in a 96-well plate format. Inhibition was assessed by monitoring the protein content in each well using the crystal violet staining method Skehan, P. et al., 1990, J Natl Cancer Inst 82:1107-1112. Briefly, cells were plated at a density of 2×10^4 cells/ml in 200 μl of DMEM supplemented with 10% FBS. After pre-incubation period of 24 h, the media was decanted, 190 μl of fresh media was added to each well, and 10 μl (150 μM) of z-Leu-Leu-Nle-CHO dissolved in 10% DMSO was added to the wells as a series 2-fold dilutions (final concentration of cisplatin in the wells ranged from 0.05-7.5 μM). The cells were incubated with z-Leu-Leu-Nle-CHO for 48 hrs, the media was decanted, and the cells were submerged with 200 μl of 0.2% crystal violet in 2% ethanol for 10 min. The plates were rinsed for 2 min with tap water. The bound dye was solublized by incubation at 37° C. for 1 h with 200 μl of 0.5% sodium dedecyl sulfate in 50% ethanol. The plates were then scanned with an ELISA reader at 562 nm. The percentage cell growth inhibition mediated by test agents was calculated as: % inhibition=[1-(OD of z-Leu-Leu-Nle-CHO-treated cells/OD DMSO-treated control cells)]×100/100.
To determine whether z-Leu-Leu-Nle-CHO treatment potentiates the effect of cisplatin on human […] cancer cells, the CaSki cells were treated for 48 h with 0.1-0.8 μM z-Leu-Leu-Nle-CHO and various concentrations of cisplatin (2-fold dilutions of a cisplatin solution to produce final concentrations of 1.6-200 μM cisplatin). Following the z-Leu-Leu-Nle-CHO and cisplatin treatment, the cells were tested for growth inhibition as described above.
Isobologram analysis was performed by measuring the IC50 values of cisplatin in the presence of various concentrations of z-Leu-Leu-Nle-CHO. These IC50 values were plotted with SigmaPlot, and a straight line was traced between the IC50 values of cells treated with either cisplatin or z-Leu-Leu-Nle-CHO alone.

RJ002L melanoma cells = assay: Bortezomib in RJ002L melanoma cells: sub-G0 DNA content by FACS and kinetic analysis; format: cell-based, human
Protocol: To assess the effect of proteasome inhibitors on the cell lines, the cells were grown in suitable culture media as described above. Highly proliferating cells (i.e., cells that had reached approximately 30% confluency) were exposed to the inhibitors as described below. The culture media was replenished with media containing proteasome inhibitors at various concentrations and the cells were incubated for 24 hours prior to harvesting the cells for further analysis.
Following treatment with the proteasome inhibitors, the melanoma and melanocyte cell cultures were assayed for apoptotic cells using the APO TARGET Annexin V FITC staining kit (Biosource, Camarillo, Calif.) according to the manufacturer's instructions followed by flow cytometric analysis using FACScaliber (Becton Dickinson, Palo Alto, Calif.) as described in Qin, J. et al., 2001, Nat Med 7: 385-386. In some cases, cell cycle and apoptosis analysis was measured using propidium iodide staining and flow cytometry as described. Cells with DNA content less than the G0 amount of untreated cells were considered apoptotic. For cell analysis, DNA histograms were analyzed using MultiCycle for Windows (Phoenix Flow Systems, San Diego, Calif.) as described in Denning, M. F. et al., 1998, J Biol Chem 273: 29995-30002.
The ability of bortezomib to induce apoptosis in RJ002L cells was assayed by kinetic analysis. RJ002L cells were incubated with 1.0 μM bortezomib for 24 hours. At various time points during the 24 hours, the cells were assayed for apoptosis using APO TARGET Annexin V-FITC staining kits (Biosource, Camerillo, Calif.) according to manufacturer's instructions. The relative percentage of cells undergoing apoptosis was quantified by flow cytometric analysis using FACSCaliber (Becton Dickinson, Palo Alto, Calif.) as described in Qin J et al., 2004, Mol Cancer Ther 3:895-902.

[2] = tested on: SAOS-2 osteosarcoma cells; assay: z-Leu-Leu-Nle-CHO on NOXA and apoptosis in SAOS-2 osteosarcoma cells; format: cell-based; conditions: 10 μM

## 5′-AAGTGTCTGAGGCCAGCAAGA-3′ [Notch-1 siRNA]
[1]; siRNA 24 h before cisplatin
  effect on cytotoxicity of cisplatin: strikingly potentiated the cytotoxicity of cisplatin

## CC(C)C[C@H](NC(=O)[C@H](Cc1ccccc1)NC(=O)c1cnccn1)B(O)O [bortezomib, N-(2-pyrazine)carbonyl-L-phenylalanine-L-leucine boronic acid]
RJ002L melanoma cells; 0.01 μM, 24 hours
  cells with sub-G0 DNA content by FACS analysis: 2%
RJ002L melanoma cells; 0.1 μM, 24 hours
  apoptotic cells: 20%
RJ002L melanoma cells; 1 μM or 10 μM, 24 hours
  apoptotic cells: 29-30%
RJ002L melanoma cells; 1.0 μM, up to 24 hours
  kinetic analysis of apoptosis: prominent apoptosis was detected at 18- and 24-hr time points
RJ002L melanoma cells; 24 hours
  increase in apoptotic cells, 0.1 μM versus 0.01 μM: 10 fold

## CCCC[C@@H](C=O)NC(=O)[C@H](CC(C)C)NC(=O)[C@H](CC(C)C)NC(=O)OCc1ccccc1 [z-Leu-Leu-Nle-CHO, N-benzyloxycarbonyl-leucyl-leucyl-norleucinal] (Cbz-Leu-Leu-[Nle]-aldehyde)
[1]; 0.1-0.8 μM, doses lower than IC50, 48 h
  effect on cisplatin cell growth inhibition: potentiated the effects of cisplatin
[1]; Homo sapiens, Ca-Ski, alone, 48 hrs, read-out: IC50, cell growth inhibition
  IC50: 640 nM
[1]; especially at low cisplatin concentrations (1-50 μM)
  isobologram analysis with cisplatin: moderate synergism
[2]; SAOS-2, p53 null
  NOXA expression: induced expression of NOXA
[2]; SAOS-2, after 24 hrs, data not shown
  dead cells: > 50%
